Assay [1] concerns the target T1, ERAlpha receptor (PanVera) (Homo sapiens, UniProt P03372).
T1 construct: purchased PanVera
T1 sequence (P03372 1-595): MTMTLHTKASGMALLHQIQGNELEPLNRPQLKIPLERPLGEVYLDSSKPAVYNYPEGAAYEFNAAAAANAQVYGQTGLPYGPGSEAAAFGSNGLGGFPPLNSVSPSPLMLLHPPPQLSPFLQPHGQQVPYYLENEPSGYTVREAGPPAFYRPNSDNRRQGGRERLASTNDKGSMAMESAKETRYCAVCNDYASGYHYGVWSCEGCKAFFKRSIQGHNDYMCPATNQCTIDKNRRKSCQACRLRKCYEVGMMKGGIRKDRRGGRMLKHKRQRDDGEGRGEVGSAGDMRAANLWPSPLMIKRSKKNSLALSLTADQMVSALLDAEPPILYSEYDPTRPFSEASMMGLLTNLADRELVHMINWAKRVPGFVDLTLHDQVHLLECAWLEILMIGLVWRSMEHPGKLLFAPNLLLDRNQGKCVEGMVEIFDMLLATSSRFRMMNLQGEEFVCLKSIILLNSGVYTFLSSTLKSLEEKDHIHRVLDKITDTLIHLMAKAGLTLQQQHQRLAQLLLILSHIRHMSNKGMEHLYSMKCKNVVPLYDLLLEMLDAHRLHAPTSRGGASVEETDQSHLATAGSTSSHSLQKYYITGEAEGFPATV
Put plainly: Competition binding assay, 3H-Estradiol, ERAlpha receptor. The following applies: 3H-Estradiol competition; IC50 converted to Ki using Cheng-Prusoff equation; read-out: ER binding Ki (ERα). How it is done:
(§1) Competition binding assay is run in a buffer containing 50 mM Hepes, pH 7.5, 1.5 mM EDTA, 150 mM NaCl, 10% glycerol, 1 mg/ml ovalbumin and 5 mM DTT, using 0.025 μCi per well ^3H-Estradiol(NEN #NET517 at 118 Ci/mmol, 1 mCi/ml), 10 ng/well ERAlpha or ERbeta receptor (PanVera). Competing compounds are added at 10 different concentrations. Non-specific binding is determined in the presence of 1 μM of 17-B Estradiol. The binding reaction (140 μl) is incubated for 4 hours at room temperature, then 70 μl of cold DCC buffer is added to each reaction (DCC buffer contains per 50 ml of assay buffer, 0.75 g of charcoal (Sigma) and 0.25 g of dextran (Pharmacia)). Plates are mixed 8 minutes on an orbital shaker at 4° C. Plates are then centrifuged at 3,000 rpm at 4° C. for 10 minutes. An aliquot of 120 μl of the mix is transferred to another 96-well, white flat bottom plate (Costar) and 175 μl of Wallac Optiphase “Hisafe 3” scintillation fluid is added to each well. Plates are sealed and shaken vigorously on an orbital shaker. After an incubation of 2.5 hrs, read plates in a Wallac Microbeta counter. The data is used to calculate an IC50 and % Inhibition at 10 μM. The Kd for ^3H-Estradiol is determined by saturation binding to ER alpha and ER beta receptors. The IC50 values for compounds are converted to Ki using Cheng-Prusoff equation and the Kd determined by saturation binding assay.

Assay [2] deals with T2, ERbeta receptor (PanVera) (Homo sapiens, UniProt Q92731).
T2 construct: purchased PanVera
Put plainly: Competition binding assay, 3H-Estradiol, ERbeta receptor. The following applies: 3H-Estradiol competition; IC50 converted to Ki using Cheng-Prusoff equation; read-out: ER binding Ki (ERβ). As to the method:
as §1

Assay [3] deals with MCF-7 breast adenocarcinoma cells. Put plainly: MCF-7 proliferation assay (14C-thymidine), antagonist mode. The following applies: E2 10 pM. In kind it is cell-based. How it is done: MCF-7 breast adenocarcinoma cells (ATCC HTB 22) are maintained in MEM (minimal essential medium, phenol red-free, Gibco BRL) supplemented with 10% fetal bovine serum (FBS) (VV), L-glutamine (2 mM), sodium pyruvate (1 mM), HEPES ((N-[2-hydroxyethyl]piperazine-N′-[2-ethanesulfonic acid]10 mM}, non-essential amino acids (0.1 mM) and Penicillin Streptomycin (1×). Seven days prior to assay, MCF-7 cells are switched to assay media which is the same as maintenance medium except supplemented with 10% dextran-coated charcoal-stripped fetal bovine serum (DCC-FBS) assay medium in place of 10% FBS. MCF-7 cells are removed from flasks using 10× Trypsin EDTA (phenol red free, Gibco BRL) and diluted to IX in (Ca++/Mg++ free HBSS (phenol red-free). Cells are adjusted to 80,000 cells/ml in assay medium. Approximately 8,000 cells (100 μl) are added to each well in 96 well Cytostar T scintillation plates (Amersham) and incubated at 37° C. in a 5% CO2 humidified incubator for 24 hours to allow cell adherence and equilibration after transfer. Serial dilutions of drugs are prepared in assay medium at 4× the final desired concentration). A 50 μl aliquot of drug dilutions (at 4× the final assay concentration) is transferred to duplicate wells followed by 50 μl assay medium for the agonist mode or 50 μl of 40 pM of E2 for the antagonist mode to a final volume of 200 μl. For each of the agonist plates, a basal level (media) and a maximum stimulated level (with 1 μM E2) is determined. For each of the antagonist plates, a basal level (media) and a E2 (10 pM) alone control is determined. After an additional 48 hours at 37° C. in a 5% CO2 humidified incubator, 20 μl of assay medium containing 0.01 μCi of ^14C-thymidine (52 mCi/mmol, 50 μCi/ul, Amersham) is added to each well. The plates are incubated overnight in the same incubator and then counted on the Wallac Microbeta counter. The data is averaged to calculate an IC50 and % inhibition @ 1 μM for the antagonist mode. For the agonist mode, an EC50 and percent of maximum E2 stimulation and concentration of maximum stimulation is calculated.

The test system of assay [4] is Ishikawa human endometrial tumor cells. Put plainly: Ishikawa alkaline phosphatase (PNPP) assay, agonist mode. Format: cell-based. The following applies: for Ishikawa Agonist % Eff: % efficacy versus the response to tamoxifen; for EC50: Homo sapiens, Ishikawa. From the text: (§2) Ishikawa human endometrial tumor cells are maintained in MEM (minimum essential medium, with Earle's salts and L-Glutamine, Gibco BRL, Gaithersburg, Md.), supplemented with 10% fetal bovine serum (FBS) (V/V), (Gibco BRL). One day prior to assay, growth media is changed to assay medium, DMEM/F-12 (3:1) (Dulbecco's Modified Eagle Medium: Nutrient Mixture F-12,3:1 Mixture, phenol red-free, Gibco BRL) supplemented with 5% dextran coated charcoal stripped fetal bovine serum (DCC-FBS) (Hyclone, Logen, Utah), L-Glutamine (2 mM), MEM sodium pyruvate (1 mM), HEPES (N-[2-hydroxyethyl]piperazine-N′-[2-ethanesulfonic acid] 2 mM) all from Gibco BRL). After an overnight incubation, ishikawa cells are rinsed with Dulbecco's Phosphate Buffered Saline (1×) (D-PBS) without Ca^+2 and Mg^+2 (Gibco BRL), and trypsinized by a 3 minute incubation with 0.25% Trypsin/EDTA, phenol red-free (Gibco BRL). Cells are resuspended in assay medium and adjusted to 250,000 cells/ml. Approximately 25,000 cells in a 100 ul media are added to flat-bottom 96 wells microculture plates (Costar 3596) and incubated at 37° C. in a 5% CO2 humidified incubator for 24 hours. The next day, serial dilutions of compounds are prepared in assay medium (at 6 times the final concentration in the assay). The assay is run in dual mode, agonist and antagonist modes. For the agonist mode, plates receive 25 μl/well of assay medium followed by 25 μl/well of diluted compounds (at 6× the final concentrations). For the antagonist mode, plates receive 25 μl/well of 6 nM E2 (β-Estradiol, Sigma, St. Louis, Mo.) followed by 25 μl/well of diluted compounds (at 6× the final concentrations). After an additional 48-hour incubation at 37° C. in a 5% CO2 humidified incubator, media is aspirated from wells and 100 μl fresh assay medium is added to each microculture. Serial dilutions of compounds are prepared and added to the cells as described above. After an additional 72 hour incubation at 37° C. in a 5% CO2 humidified incubator, the assay is quenched by removing media and rinsing plates twice in Dulbecco's Phosphate Buffered Saline (1×) (D-PBS) (Gibco BRL). The plates are dried for 5 min and frozen at −70° C. for at least 1 hour. The plates are then removed from the freezer and allowed to thaw at room temperature. To each well, 100 μl of 1-Step™ PNPP (Pierce Chemical Company, Rockford, Ill.) is added. After a 20-minute incubation, plates are read on a spectophotometer at 405 nm. The data is fitted to a linear interpolation to derive EC50 (for agonist mode) or IC50 (for antagonist mode) values. For the agonist mode, a % efficacy for each compound is calculated versus the response to tamoxifen. For the antagonist mode, a % efficacy for each compound is calculated versus E2 (1 nM) alone.

The test system is the same in assay [5]. Put plainly: Ishikawa alkaline phosphatase (PNPP) assay, antagonist mode. In kind it is cell-based. The following applies: with E2 (1 nM).
From the text: as §2

[6] abbreviates: Homo sapiens, MCF7, antagonist mode.
Setting [7] is: antagonist mode, hydrochloride salt.

Counter-ions that a name gives are not always drawn.

T2 sequence (Q92731 whole entry): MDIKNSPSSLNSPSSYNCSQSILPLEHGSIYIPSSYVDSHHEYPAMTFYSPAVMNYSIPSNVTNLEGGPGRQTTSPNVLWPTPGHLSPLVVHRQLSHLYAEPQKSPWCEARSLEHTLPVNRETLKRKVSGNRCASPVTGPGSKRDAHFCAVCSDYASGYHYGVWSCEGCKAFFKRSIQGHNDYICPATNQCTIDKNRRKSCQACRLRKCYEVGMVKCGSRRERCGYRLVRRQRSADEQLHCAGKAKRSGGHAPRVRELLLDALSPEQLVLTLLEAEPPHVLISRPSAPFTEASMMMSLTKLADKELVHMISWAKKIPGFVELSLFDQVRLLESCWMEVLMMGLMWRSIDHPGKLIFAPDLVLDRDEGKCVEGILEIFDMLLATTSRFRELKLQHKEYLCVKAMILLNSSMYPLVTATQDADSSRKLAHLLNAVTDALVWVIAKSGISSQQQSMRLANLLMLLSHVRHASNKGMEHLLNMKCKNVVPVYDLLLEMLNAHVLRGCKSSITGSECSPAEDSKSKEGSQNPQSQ

In the case of `Cl.Oc1ccc2c(c1)COC(c1ccc(OCCN3CCCCC3)cc1)c1c-2ccc2cc(O)ccc12` (single isomer, unassigned) [Example 7, 11-[4-(2-Piperidin-1-yl-ethoxy)-phenyl]-11,13-dihydro-12-oxa-benzo[3,4]cyclohepta[1,2-a]naphthalene-2,8-diolhydrochloride salt], the values for the inhibitory constant (Ki) in assay [1] and in assay [2] were 0.7 nM and 1.7 nM, respectively. The IC50 came to 0.4 nM in assay [3] (antagonist mode) and 2.2 nM in assay [5]. Besides, the “Ishikawa Agonist % Eff” value in assay [4] worked out at 2.6%.

For `Oc1ccc2c3c(sc2c1)-c1ccccc1COC3c1ccc(OCCN2CCCCC2)cc1` (stereo not drawn) [Example 2, 7-[4-(2-Piperidin-1-yl-ethoxy)-phenyl]-5H,7H-6-oxa-12-thia-dibenzo[a,e]azulen-10-ol], the Ki in assay [1] came out at 2.9 nM; in assay [2] it was 19 nM. Moreover, the half-maximal inhibitory concentration (IC50) in assay [3] (setting [6]) was found to be 36 nM; in assay [5] (Homo sapiens, Ishikawa) it was 270 nM. Besides, the “Ishikawa Agonist % Eff” value in assay [4] is listed as 41%. For the same compound, in assay [4], a half-maximal response (EC50) required 2.8 nM.

As for `Cl.Oc1ccc2c(c1)COC(c1ccc(OCCN3CCCCC3)cc1)c1c-2ccc2cc(O)ccc12` (single isomer, unassigned) [Example 6, 11-[4-(2-Piperidin-1-yl-ethoxy)-phenyl]-11,13-dihydro-12-oxa-benzo[3,4]cyclohepta[1,2-a]naphthalene-2,8-diolhydrochloride salt], the inhibition constant (Ki) in assay [1] came out at 58 nM; in assay [2], 120 nM. The IC50 is 160 nM in assay [3] (antagonist mode) and 740 nM in assay [5]. Also, in assay [4], the “Ishikawa Agonist % Eff” value came to 38%. The compound also returned a concentration giving a half-maximal response (EC50) in assay [4] of 54 nM.

As to `Oc1ccc2c3c(ccc2c1)-c1ccccc1COC3c1ccc(OCCN2CCCCC2)cc1` (stereo not drawn) [Example 4, 11-[4-(2-Piperidin-1-yl-ethoxy)-phenyl]-11,13-dihydro-12-oxa-benzo[3,4]cyclohepta[1,2-a]naphthalen-8-ol trifluoroacetate], the results for the Ki in assay [1] and in assay [2] were 2.6 nM and 4 nM, respectively. Besides, the 50% inhibitory concentration (IC50) in assay [3] (setting [6]) was 2.4 nM; in assay [5] (Homo sapiens, Ishikawa) it was 36 nM. In addition, in assay [4], the “Ishikawa Agonist % Eff” value is recorded as 17%. For the same compound, the EC50 in assay [4] amounted to 1.4 nM.

As for `COc1ccc2c3c(ccc2c1)-c1ccccc1COC3c1ccc(OCCN2CCCCC2)cc1` (stereo not drawn) [Example 3, 1-{2-[4-(8-Methoxy-11,13-dihydro-12-oxa-benzo[3,4]cyclohepta[1,2-a]naphthalen-11-yl)-phenoxy]-ethyl}-piperidine], the inhibition constant (Ki) in assay [1] was 140 nM; in assay [2] it was 430 nM. The 50% inhibitory concentration (IC50) was found to be 480 nM in assay [3] (setting [6]) and 340 nM in assay [5] (Homo sapiens, Ishikawa). In assay [4], the “Ishikawa Agonist % Eff” value was determined as 21%. This compound showed an EC50 in assay [4] of 260 nM.

For `COc1ccc2c3c(sc2c1)-c1ccccc1COC3c1ccc(OCCN2CCCCC2)cc1` (stereo not drawn) [Example 1, 1-{2-[4-(10-Methoxy-5H,7H-6-oxa-12-thia-dibenzo[a,e]azulen-7-yl)-phenoxy]-ethyl}-piperidine], the Ki in assay [1] turned out to be 240 nM. Besides, in assay [4], the “Ishikawa Agonist % Eff” value is 31% and the EC50 was 300 nM.

Regarding `Cl.Oc1ccc2c3c(ccc2c1)-c1ccc(F)cc1COC3c1ccc(OCCN2CCCCC2)cc1` (single isomer, unassigned) [Example 9, 2-Fluoro-11-[4-(2-piperidin-1-yl-ethoxy)-phenyl]-11,13-dihydro-12-oxa-benzo[3,4]cyclohepta[1,2-a]naphthalen-8-ol hydrochloride salt], the Ki is 62 nM in assay [1] and 89 nM in assay [2]. Moreover, the half-maximal inhibitory concentration (IC50) stood at 68 nM in assay [3] (setting [7]) and 350 nM in assay [5] (hydrochloride salt). The “Ishikawa Agonist % Eff” value in assay [4] (hydrochloride salt) turned out to be 11%.

With `Cl.Oc1ccc2c3c(ccc2c1)-c1ccc(F)cc1COC3c1ccc(OCCN2CCCCC2)cc1` (single isomer, unassigned) [Example 8, 2-Fluoro-11-[4-(2-piperidin-1-yl-ethoxy)-phenyl]-11,13-dihydro-12-oxa-benzo[3,4]cyclohepta[1,2-a]naphthalen-8-ol hydrochloride salt], the Ki was 0.7 nM in assay [1] and 1.4 nM in assay [2]. The results for the half-inhibitory concentration (IC50) in assay [3] (setting [7]) and in assay [5] (hydrochloride salt) were 0.4 nM and 4.3 nM, respectively. In assay [4] (hydrochloride salt), the “Ishikawa Agonist % Eff” value worked out at 8.8%.

(Values after patent publication US7271264B2, “Pentacyclic oxepines and derivatives thereof, compositions and methods” (Eli Lilly and Company, priority 2002, dated 2007).)
